{"source": "paper PMC5795001", "about": "“The activity of the C4-dicarboxylic acid chemoreceptor of Pseudomonas aeruginosa is controlled by chemoattractants and antagonists” (Scientific Reports, 2018)", "key": {"[1]": {"system": "Pseudomonas aeruginosa PAO1 cheA2 mutant", "assay": "Capillary chemotaxis assay, cheA2 mutant", "format": "cell-based", "details": "10 mM L-malic acid", "experimental": "A recent bioinformatic study has predicted that PA2652 signals through the che pathway. To verify this prediction we conducted chemotaxis assays to L-malic acid using the wt strain as well as mutants in cheA1 and cheA2, encoding respectively the histidine kinases of the che and che2 pathways.\nOvernight cultures of P. aeruginosa strains were diluted to an OD660 of 0.05 in MS medium (30 mM Na2HPO4, 20 mM KH2PO4, 25 mM NH4NO3, 1 mM MgSO4) supplemented with 6 mg l^−1 Fe-citrate, trace elements[81] and 15 mM glucose as carbon source, and grown at 37 °C with orbital shaking (200 rpm). At an OD660 of 0.4 ([…]) cultures were centrifuged at 1,700 × g for 5 min and the resulting pellet was washed twice with chemotaxis buffer (50 mM potassium phosphate, […], 0.05% (v/v) glycerol, pH 7.0). Subsequently, the cells were resuspended in the same buffer, adjusted to an OD660 of 0.1 and 230 µl aliquots of the bacterial cultures were placed into 96-well plates. For the quantitative assays, one-microliter capillary tubes (Microcaps, Drummond Scientific, Ref. P1424) were heat-sealed at one end and filled with either the chemotaxis buffer (negative control) or chemotaxis buffer containing the chemoeffectors to test. The capillaries were immersed into the bacterial suspensions at its open end. […] The number of colony forming units was determined after overnight incubation. […]"}, "[2]": {"target": "T1, PA2652-LBD (Pseudomonas aeruginosa, UniProt Q9I0I6)", "T1 construct": "The DNA fragment encoding the LBD of PA2652 (Lys^34–Thr^205) was amplified; His-tag (vector-encoded by pET28b(+) via NdeI site); made in house; host or cells: Escherichia coli BL21 (DE3)", "T1 sequence (Q9I0I6 34-205)": "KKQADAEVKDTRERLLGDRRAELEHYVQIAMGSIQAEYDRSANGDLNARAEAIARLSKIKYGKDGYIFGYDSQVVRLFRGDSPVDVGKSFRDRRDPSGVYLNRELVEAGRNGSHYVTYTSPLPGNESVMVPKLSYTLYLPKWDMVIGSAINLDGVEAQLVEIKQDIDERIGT", "format": "binding, Pseudomonas aeruginosa PAO1", "details": "DSF screening as described in text; 2 °C threshold for significant hits", "description": "To identify ligands that may bind to the LBD of PA2652, we conducted Differential Scanning Fluorimetry (DSF) based high throughput ligand screening assays as described previously[37],[38]. DSF analyses permit the determination of melting temperature (Tm) values, which corresponds to the temperature at which half the protein is in its native conformation whereas the remaining half has undergone thermal unfolding. Since ligand binding typically enhances the thermal stability of proteins, increases in the Tm in the presence of ligands may be indicative of specific binding. We screened 450 different compounds available in five different ligand arrays from Biolog (Supplementary Fig. S3). The screened collection included different carbon and nitrogen sources, phosphorous and sulfurous compounds as well as different nutrient supplements.\nThermal shift assays were performed on a MyIQ2 Real-Time PCR instrument (BioRad). Ligands from the different compound arrays (Biolog, Hayward, CA, USA; see Supplementary Fig. S3) were dissolved in 50 μl of MilliQ water, which, according to the manufacturer, corresponds to a concentration of 10–20 mM. Screening was performed using 96 wells plates. Each well contained 20 μM of protein dialyzed into TNG buffer (20 mM Tris/HCl, 150 mM NaCl, 10% (v/v) glycerol, pH 6.7), 2.5 μl of the resuspended compounds and SYPRO Orange (Life Technologies) at 5× concentration. In a single well (ligand free protein) the compound was substituted by water. Samples were heated from 23 °C to 85 °C at a scan rate of 1 °C/min. The protein unfolding curves were obtained by following the changes in SYPRO Orange fluorescence. Melting temperatures were determined using the first derivative values from the raw fluorescence data."}, "[3]": {"target": "T1, PA2652-LBD", "assay": "biochemical", "format": "binding, Pseudomonas aeruginosa PAO1", "experimental": "To unambiguously determine ligand binding, we conducted Isothermal Titration Calorimetry (ITC)[40] binding studies with the purified protein.\nExperiments were conducted on a VP-microcalorimeter (Microcal, Amherst, MA, USA) at 20 °C. PA2652-LBD was dialyzed overnight against TNG buffer, adjusted to a concentration of 20–35 μM and placed into the sample cell of the instrument. The protein was titrated by the injection of 9.6–14.4 μl aliquots of 1–20 mM ligand solutions that were prepared in TNG buffer (20 mM Tris/HCl, 150 mM NaCl, 10% (v/v) glycerol, pH 6.8) immediately before use. The mean enthalpies measured from the injection of ligands into buffer were subtracted from raw titration data prior to data analysis with the MicroCal version of ORIGIN. Data were fitted with the “One binding site model”."}, "[4]": {"system": "Pseudomonas aeruginosa PAO1", "assay": "Quantitative capillary chemotaxis assay, wild type", "format": "cell-based", "experimental": "Secondly, we assessed the capacity of the ligands identified to induce chemotaxis. To this end, we carried out quantitative capillary chemotaxis assays using the wt strain and PA2652 ligands at concentrations ranging from 10 µM to 100 mM.\nOvernight cultures of P. aeruginosa strains were diluted to an OD660 of 0.05 in MS medium (30 mM Na2HPO4, 20 mM KH2PO4, 25 mM NH4NO3, 1 mM MgSO4) supplemented with 6 mg l^−1 Fe-citrate, trace elements[81] and 15 mM glucose as carbon source, and grown at 37 °C with orbital shaking (200 rpm). At an OD660 of 0.4 ([…]) cultures were centrifuged at 1,700 × g for 5 min and the resulting pellet was washed twice with chemotaxis buffer (50 mM potassium phosphate, […], 0.05% (v/v) glycerol, pH 7.0). Subsequently, the cells were resuspended in the same buffer, adjusted to an OD660 of 0.1 and 230 µl aliquots of the bacterial cultures were placed into 96-well plates. For the quantitative assays, one-microliter capillary tubes (Microcaps, Drummond Scientific, Ref. P1424) were heat-sealed at one end and filled with either the chemotaxis buffer (negative control) or chemotaxis buffer containing the chemoeffectors to test. The capillaries were immersed into the bacterial suspensions at its open end. After 30 min at room temperature, capillaries were removed from the bacterial suspensions, rinsed with sterile water and the content expelled into 1 ml of M9 medium salts. Serial dilutions were plated onto M9 minimal medium (containing the appropriate antibiotics) supplemented with 15 mM glucose as carbon source. The number of colony forming units was determined after overnight incubation. In all cases, data were corrected with the number of cells that swam into buffer containing capillaries."}}, "note": "Entries after “also recorded” stand apart in the source; their conditions may differ."}
{"smiles": "O=C(O)C[C@H](O)C(=O)O", "note": "[L-malic acid]", "values": [{"measurement": "Chemotaxis in cheA2 mutant", "setting": "[1]", "value": "almost identical to that of wt strain; also recorded: indistinguishable from that of the wt"}, {"measurement": "Tm increases", "setting": "[2]", "value": "more than 2 °C"}, {"measurement": "Kd", "setting": "[3]", "value": "23 ± 1", "unit": "µM"}, {"measurement": "TΔS (entropy change of binding)", "setting": "[3]; ITC", "value": "8.79 ± 4.2", "unit": "kJ/mol"}, {"measurement": "Binding in ITC", "setting": "[3]; YES/NO", "value": "YES"}, {"measurement": "Role of PA2652 ligand (chemoattractant or antagonist)", "setting": "[4]; authors' classification from chemotaxis results", "value": "chemoattractants"}, {"measurement": "Chemotactic response", "setting": "[4]; wt PAO1, ligands at 10 µM to 100 mM", "value": "strong chemotaxis responses"}]}
